Test results as given in US11926623B2, “Heterocycle derivatives as pesticides” (Bayer Aktiengesellschaft, priority 2018, dated 2024).

How the values were obtained:
Format in all cases: in vivo
Myzus persicae [1] = assay: Myzus persicae oral test; conditions: 120 h, mixed population of green peach aphids, after 5 days, read-out: efficacy
Description: Myzus persicae—Oral Test [table] To produce a suitable preparation of active compound, 1 part by weight of active compound is dissolved using the specified parts by weight of solvent and made up with water until the desired concentration is attained. 50 μl of the active ingredient formulation are transferred into microtitre plates and made up to a final volume of 200 μl with 150 μl of IPL41 insect medium (33%+15% sugar). Subsequently, the plates are sealed with parafilm, which a mixed population of green peach aphids (Myzus persicae) within a second microtitre plate is able to puncture and imbibe the solution through. After 5 days, the efficacy in % is determined. 100% means that all the aphids have been killed; 0% means that no aphids have been killed.

Spodoptera frugiperda = Spodoptera frugiperda spray test; conditions: foliar, 168 h, sprayed maize leaf discs, fall armyworm caterpillars, after 7 days, read-out: efficacy
Description: Spodoptera frugiperda—Spray Test [table] To produce a suitable active compound preparation, 1 part by weight of active compound is dissolved using the stated parts by weight of solvent and made up with water containing an emulsifier concentration of 1000 ppm until the desired concentration is attained. To produce further test concentrations, the formulation is diluted with emulsifier-containing water. Leaf discs of maize (Zea mays) are sprayed with an active compound formulation of the desired concentration and, after drying, populated with caterpillars of the fall armyworm (Spodoptera frugiperda). After 7 days, the efficacy in % is determined. 100% means that all the caterpillars have been killed; 0% means that no caterpillar has been killed.

Myzus persicae [2] = assay: Myzus persicae spray test; conditions: foliar, 120 h, sprayed Chinese cabbage leaf discs, all stages of the green peach aphid, after 5 days, read-out: efficacy
Description: Myzus persicae—Spray Test [table] To produce a suitable active compound preparation, 1 part by weight of active compound is dissolved using the stated parts by weight of solvent and made up with water containing an emulsifier concentration of 1000 ppm until the desired concentration is attained. To produce further test concentrations, the formulation is diluted with emulsifier-containing water. Discs of Chinese cabbage leaves (Brassica pekinensis) infested by all stages of the green peach aphid (Myzus persicae) are sprayed with an active compound formulation of the desired concentration. After 5 days, the efficacy in % is determined. 100% means that all the aphids have been killed; 0% means that no aphids have been killed.

Diabrotica balteata = Diabrotica balteata spray test; conditions: 168 h, 160 μg/well, sprayed germinated wheat grains, beetle larvae, after 7 days, read-out: efficacy
Description: Diabrotica balteata—Spray Test [table] To produce a suitable active compound preparation, 1 part by weight of active compound is dissolved using the stated parts by weight of solvent and made up with water containing an emulsifier concentration of 1000 ppm until the desired concentration is attained. To produce further test concentrations, the formulation is diluted with emulsifier-containing water. Pre-swollen wheat grains (Triticum aestivum) are incubated in a multiwell plate filled with agar and a little water for one day (5 seed grains per well). The germinated wheat grains are sprayed with an active compound preparation of the desired concentration. Subsequently, each cavity is infected with 10-20 beetle larvae of Diabrotica balteata. After 7 days, the efficacy in % is determined. 100% means that all wheat plants have grown as in the untreated, uninfected control; 0% means that no wheat plant has grown.

Structure (SMILES) | pest or weed control at 4 ppm (Myzus persicae [1]) [%] | pest or weed control at 100 g/ha (Spodoptera frugiperda) [%] | pest or weed control at 100 g/ha (Myzus persicae [2]) [%] | pest or weed control at 160 µg/disc, 160 µg/well (Diabrotica balteata) [%]
CCS(=O)(=O)c1c(-c2nc3cc(C(F)(F)F)cnc3n2C)nc(C2CC(c3ccc(Cl)cc3)=NO2)n1C (stereo not drawn) [Example I-2] | 100 | 100 |  | 
CCS(=O)(=O)c1c(-c2nc3cc(C(F)(F)F)cnc3n2C)nc(C2CC(c3ccccn3)=NO2)n1C (stereo not drawn) [Example I-3] | 100 | 100 | 90 | 
CCS(=O)(=O)c1c(-c2nc3cc(C(F)(F)F)cnc3n2C)nc(C2CC(c3cccnc3)=NO2)n1C (stereo not drawn) [Example I-4] | 100 |  | 100 | 
CCS(=O)(=O)c1c(-c2nc3cc(C(F)(F)F)cnc3n2C)nc(-c2cccc(C3(C#N)CC3)c2)n1C [Example I-12] | 100 | 100 | 90 | 100
CCS(=O)(=O)c1c(-c2nc3cc(C(F)(F)F)cnc3n2C)nc(-c2ccc(-c3cccs3)s2)n1C [Example I-13] | 100 |  | 90 | 80
CCS(=O)(=O)c1c(-c2nc3cc(C(F)(F)C(F)(F)F)cnc3n2C)nc(-c2ccc(C3(C#N)CC3)cc2)n1C [Example I-15] | 100 | 100 | 90 | 100
CCS(=O)(=O)c1c(-c2nc3cc(C(F)(F)C(F)(F)F)cnc3n2C)nc(-c2cnn(C3CC3)c2)n1C [Example I-16] | 100 | 100 | 90 | 100
CCS(=O)(=O)c1c(-c2nc3cc(C(F)(F)C(F)(F)F)cnc3n2C)nc(-c2cnn(-c3ccc(F)cc3)c2)n1C [Example I-17] | 100 | 100 |  | 100
CCS(=O)(=O)c1c(-c2nc3cc(C(F)(F)C(F)(F)F)cnc3n2C)nc(-c2cnn(-c3ccccc3C#N)c2)n1C [Example I-18] | 100 | 100 | 70 | 80
CCS(=O)(=O)c1c(-c2nc3cc(C(F)(F)C(F)(F)F)cnc3n2C)nc(-c2cnn(-c3cccc(C#N)c3)c2)n1C [Example I-19] | 100 | 100 |  | 100
CCS(=O)(=O)c1c(-c2nc3cc(C(F)(F)C(F)(F)F)cnc3n2C)nc(-c2cnn(-c3cncc(F)c3)c2)n1C [Example I-20] | 100 | 100 | 100 | 100
CCS(=O)(=O)c1c(-c2nc3cc(C(F)(F)C(F)(F)F)cnc3n2C)nc(-n2ccc(C3CC3)n2)n1C [Example I-21] | 100 | 100 | 90 | 100
CCS(=O)(=O)c1c(-c2nc3cc(C(F)(F)C(F)(F)F)cnc3n2C)nc(-c2cccc(N3CCOCC3)n2)n1C [Example I-23] | 100 | 100 |  | 100
CCS(=O)(=O)c1c(-c2nc3cc(C(F)(F)C(F)(F)F)cnc3n2C)nc(-c2cccc(C3(C#N)CC3)c2)n1C [Example I-24] | 100 | 100 |  | 100
CCS(=O)(=O)c1c(-c2nc3cc(C(F)(F)C(F)(F)F)cnc3n2C)nc(-n2cc(C#N)c(-c3ccccc3F)c2)n1C [Example I-25] |  | 100 |  | 100
CCS(=O)(=O)c1c(-c2nc3cc(C(F)(F)C(F)(F)F)cnc3n2C)nc(-n2cc(C#N)c(-c3ccc(F)cc3)c2)n1C [Example I-26] | 100 | 100 |  | 100
